Here are results for 23 compounds from US8791148B2, “Substituted benzimidazolone derivatives, medicaments comprising them and their use” (AbbVie Deutschland GmbH & Co. KG, priority 2006, dated 2014).

The assay concerns the target T1, human vasopressin V1b receptor (Homo sapiens, UniProt P47901).
T1 construct: expressed in transfected cells; host or cells: CHO-K1 (cell line hV1b-3H2_CHO), membrane preparation
T1 sequence (P47901 1-424): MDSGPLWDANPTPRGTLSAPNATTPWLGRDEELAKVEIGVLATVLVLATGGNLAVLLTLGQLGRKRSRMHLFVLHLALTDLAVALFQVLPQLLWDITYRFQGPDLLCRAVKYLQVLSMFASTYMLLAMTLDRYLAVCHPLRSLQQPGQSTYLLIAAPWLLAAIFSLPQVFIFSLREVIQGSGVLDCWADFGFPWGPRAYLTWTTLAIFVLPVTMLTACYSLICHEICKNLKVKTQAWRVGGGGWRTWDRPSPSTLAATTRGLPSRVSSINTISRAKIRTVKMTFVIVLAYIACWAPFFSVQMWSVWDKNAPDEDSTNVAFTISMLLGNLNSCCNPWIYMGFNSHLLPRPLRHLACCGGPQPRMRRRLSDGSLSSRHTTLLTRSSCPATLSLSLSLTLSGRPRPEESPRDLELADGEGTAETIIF
Nature of the assay: Vasopressin V1b receptor binding assay. Particulars: membranes from CHO-K1 cells with stably expressed human V1b receptors; displacement of 1.5 nM 3H-AVP; read-out: V1b receptor affinity (affinity constant Ki). The procedure, abridged: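 Ki values come from nonlinear regression of triplicate scintillation counts after filtration. Test compound (2% DMSO in the mixture) and radioligand were incubated 60 min at room temperature with human V1b membranes in pH 7.4 Tris buffer with 10 mM MgCl2 and 0.1% BSA. Nonspecific binding was set with 1 uM AVP.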

Structures are written as SMILES. A value given as a limit tells only on which side of the number the result lay.

Regarding `CCCN1CCN([C@@H]2CCN(C(=O)C(c3ccccc3)n3c(=O)n(S(=O)(=O)c4ccc(OC)cc4)c4ccc(Cl)cc43)C2)CC1` (stereo partly drawn) [Example 157, 5-Chloro-1-(4-methoxybenzenesulfonyl)-3-{2-oxo-1-phenyl-2-[(R)-3-(4-propylpiperazin-1-yl)pyrrolidin-1-yl]ethyl}-1,3-dihydrobenzimidazol-2-one], the Ki (commonly a measure of affinity in units of concentration, obtained from inhibition or displacement) is less than 100 nM.

For the compound `CCCN1CCN([C@H]2CCN(C(=O)C(c3ccccc3)n3c(=O)n(S(=O)(=O)c4ccc(OC)cc4)c4ccc(Cl)cc43)C2)CC1` (stereo partly drawn) [Example 158, 5-Chloro-1-(4-methoxybenzenesulfonyl)-3-{2-oxo-1-phenyl-2-[(S)-3-(4-propylpiperazin-1-yl)pyrrolidin-1-yl]ethyl}-1,3-dihydrobenzimidazol-2-one], the Ki is less than 100 nM.

Regarding `COc1ccc(S(=O)(=O)n2c(=O)n(C(C(=O)N3CC[C@@H](N4CCN(C)CC4)C3)c3ccccc3)c3cc(Cl)ccc32)cc1` (stereo partly drawn) [Example 159, 5-Chloro-1-(4-methoxybenzenesulfonyl)-3-{2-[(R)-3-(4-methylpiperazin-1-yl)pyrrolidin-1-yl]-2-oxo-1-phenylethyl}-1,3-dihydrobenzimidazol-2-one], the Ki was less than 100 nM.

Regarding `COc1ccc(S(=O)(=O)n2c(=O)n(C(C(=O)N3CC[C@H](N4CCN(C)CC4)C3)c3ccccc3)c3cc(C#N)ccc32)cc1` (stereo partly drawn) [Example 160, 1-(4-Methoxybenzenesulfonyl)-3-{2-[(S)-3-(4-methylpiperazin-1-yl)-pyrrolidin-1-yl]-2-oxo-1-phenylethyl}-2-oxo-2,3-dihydro-1H-benzimidazole-5-carbonitrile], the Ki is less than 100 nM.

On to `CCCN1CCN([C@H]2CCN(C(=O)C(c3ccccc3)n3c(=O)n(S(=O)(=O)c4ccc(OC)cc4)c4ccc(C#N)cc43)C2)CC1` (stereo partly drawn) [Example 161, 1-(4-Methoxybenzenesulfonyl)-2-oxo-3-{2-oxo-1-phenyl-2-[(S)-3-(4-propylpiperazin-1-yl)pyrrolidin-1-yl]ethyl}-2,3-dihydro-1H-benzimidazole-5-carbonitrile], for which the Ki is less than 100 nM.

On to `COc1ccc(S(=O)(=O)n2c(=O)n(C(C(=O)N3CC[C@@H](N4CCN(C)CC4)C3)c3ccccc3)c3cc(C#N)ccc32)cc1` (stereo partly drawn) [Example 162, 1-(4-Methoxybenzenesulfonyl)-3-{2-[(R)-3-(4-methylpiperazin-1-yl)-pyrrolidin-1-yl]-2-oxo-1-phenylethyl}-2-oxo-2,3-dihydro-1H-benzimidazole-5-carbonitrile], for which the Ki lay in the range of 100 to 500 nM.

As to `CCCN1CCN([C@@H]2CCN(C(=O)C(c3ccccc3)n3c(=O)n(S(=O)(=O)c4ccc(OC)cc4)c4ccc(C#N)cc43)C2)CC1` (stereo partly drawn) [Example 163, 1-(4-Methoxybenzenesulfonyl)-2-oxo-3-{2-oxo-1-phenyl-2-[(R)-3-(4-propylpiperazin-1-yl)pyrrolidin-1-yl]ethyl}-2,3-dihydro-1H-benzimidazole-5-carbonitrile], the Ki lay within 100 to 500 nM.

Regarding `COc1ccc(S(=O)(=O)n2c(=O)n(C(C(=O)N3CCN(C4CCCNC4)CC3)c3ccccc3)c3cc(Cl)ccc32)cc1` (centres unmarked) [Example 165, 5-Chloro-1-(4-methoxybenzenesulfonyl)-3-[2-oxo-1-phenyl-2-(4-piperidin-3-ylpiperazin-1-yl)ethyl]-1,3-dihydrobenzimidazol-2-one], the inhibitory constant (Ki) was 500 to 10000 nM.

As for `COc1ccc(S(=O)(=O)n2c(=O)n(C(C(=O)N3CCC(N)C3)c3ccccc3)c3cc(Cl)ccc32)cc1` (centres unmarked) [Example 166, 3-[2-(3-Aminopyrrolidin-1-yl)-2-oxo-1-phenylethyl]-5-chloro-1-(4-methoxybenzenesulfonyl)-1,3-dihydrobenzimidazol-2-one], the Ki lay within 100 to 500 nM.

In the case of `COc1ccc(S(=O)(=O)n2c(=O)n(C(C(=O)N3CCCC(N)C3)c3ccccc3)c3cc(Cl)ccc32)cc1` (centres unmarked) [Example 167, 3-[2-(3-Aminopiperidin-1-yl)-2-oxo-1-phenylethyl]-5-chloro-1-(4-methoxybenzenesulfonyl)-1,3-dihydrobenzimidazol-2-one], the Ki is less than 100 nM.

In the case of `COc1ccc(S(=O)(=O)n2c(=O)n(C(C(=O)N3CC[C@H](N)C3)c3ccccc3)c3cc(Cl)ccc32)cc1` (stereo partly drawn) [Example 168, 3-[2-((S)-3-Aminopyrrolidin-1-yl)-2-oxo-1-phenylethyl]-5-chloro-1-(4-methoxybenzenesulfonyl)-1,3-dihydrobenzimidazol-2-one], the Ki lay in the range of 100 to 500 nM.

Take `COc1ccc(S(=O)(=O)n2c(=O)n(C(C(=O)N3CC[C@@H](N)C3)c3ccccc3)c3cc(Cl)ccc32)cc1` (stereo partly drawn) [Example 169, 3-[2-((R)-3-Aminopyrrolidin-1-yl)-2-oxo-1-phenylethyl]-5-chloro-1-(4-methoxybenzenesulfonyl)-1,3-dihydrobenzimidazol-2-one]: the Ki was 500 to 10000 nM.

As for `COc1ccc(S(=O)(=O)n2c(=O)n(C(C(=O)N3CCCC(N)C3)c3ccccc3)c3cc(C#N)ccc32)cc1` (centres unmarked) [Example 170, 3-[2-(3-Aminopiperidin-1-yl)-2-oxo-1-phenylethyl]-1-(4-methoxybenzenesulfonyl)-2-oxo-2,3-dihydro-1H-benzimidazole-5-carbonitrile], the Ki lay within 500 to 10000 nM.

Turning to `COc1ccc(S(=O)(=O)n2c(=O)n(C(C(=O)N3CC[C@H](N)C3)c3ccccc3)c3cc(C#N)ccc32)cc1` (stereo partly drawn) [Example 171, 3-[2-((S)-3-Aminopyrrolidin-1-yl)-2-oxo-1-phenylethyl]-1-(4-methoxybenzenesulfonyl)-2-oxo-2,3-dihydro-1H-benzimidazole-5-carbonitrile], the Ki is 500 to 10000 nM.

With `COc1ccc(S(=O)(=O)n2c(=O)n(C(C(=O)N3CC[C@@H](N)C3)c3ccccc3)c3cc(C#N)ccc32)cc1` (stereo partly drawn) [Example 172, 3-[2-((R)-3-Aminopyrrolidin-1-yl)-2-oxo-1-phenylethyl]-1-(4-methoxybenzenesulfonyl)-2-oxo-2,3-dihydro-1H-benzimidazole-5-carbonitrile], the Ki was in the range of 500 to 10000 nM.

With `COc1ccc(S(=O)(=O)n2c(=O)n(C(C(=O)N[C@H]3CCNC3)c3ccccc3)c3cc(Cl)ccc32)cc1` (stereo partly drawn) [Example 173, 2-[6-Chloro-3-(4-methoxybenzenesulfonyl)-2-oxo-2,3-dihydrobenzimidazol-1-yl]-2-phenyl-N—(S)-pyrrolidin-3-ylacetamide], the Ki was 500 to 10000 nM.

Consider `COc1ccc(S(=O)(=O)n2c(=O)n(C(C(=O)N[C@@H]3CCNC3)c3ccccc3)c3cc(Cl)ccc32)cc1` (stereo partly drawn) [Example 174, 2-[6-Chloro-3-(4-methoxybenzenesulfonyl)-2-oxo-2,3-dihydrobenzimidazol-1-yl]-2-phenyl-N—(R)-pyrrolidin-3-ylacetamide], for which the Ki was in the range of 500 to 10000 nM.

For the compound `COc1ccc(S(=O)(=O)n2c(=O)n(C(C(=O)N3CCC(NC4CCNCC4)C3)c3ccccc3)c3cc(Cl)ccc32)cc1` (centres unmarked) [Example 175, 5-Chloro-1-(4-methoxybenzenesulfonyl)-3-{2-oxo-1-phenyl-2-[3-(piperidin-4-ylamino)pyrrolidin-1-yl]ethyl}-1,3-dihydrobenzimidazol-2-one], the Ki is less than 100 nM.

As to `COc1ccc(S(=O)(=O)n2c(=O)n(C(C(=O)N3CC[C@@H](NC4CCNCC4)C3)c3ccccc3)c3cc(Cl)ccc32)cc1` (stereo partly drawn) [Example 176, 5-Chloro-1-(4-methoxybenzenesulfonyl)-3-{2-oxo-1-phenyl-2-[(R)-3-(piperidin-4-ylamino)pyrrolidin-1-yl]ethyl}-1,3-dihydrobenzimidazol-2-one], the Ki is less than 100 nM.

On to `COc1ccc(S(=O)(=O)n2c(=O)n(C(C(=O)N3CC[C@H](NC4CCNCC4)C3)c3ccccc3)c3cc(Cl)ccc32)cc1` (stereo partly drawn) [Example 177, 5-Chloro-1-(4-methoxybenzenesulfonyl)-3-{2-oxo-1-phenyl-2-[(S)-3-(piperidin-4-ylamino)pyrrolidin-1-yl]ethyl}-1,3-dihydrobenzimidazol-2-one], for which the Ki was less than 100 nM.

In the case of `COc1ccc(S(=O)(=O)n2c(=O)n(C(C(=O)N3CC[C@H](N4CCN(C(C)C)CC4)C3)c3ccccc3)c3cc(C#N)ccc32)cc1` (stereo partly drawn) [Example 189, 3-{2-[(S)-3-(4-Isopropylpiperazin-1-yl)pyrrolidin-1-yl]-2-oxo-1-phenylethyl}-1-(4-methoxybenzenesulfonyl)-2-oxo-2,3-dihydro-1H-benzimidazole-5-carbonitrile], the Ki was less than 100 nM.

On to `CCCN1CCN([C@H]2CCCN(C(=O)C(c3ccccc3)n3c(=O)n(S(=O)(=O)c4ccc(OC)cc4)c4ccc(C#N)cc43)C2)CC1` (stereo partly drawn) [Example 191, 1-(4-Methoxybenzenesulfonyl)-2-oxo-3-{2-oxo-1-phenyl-2-[(S)-3-(4-propylpiperazin-1-yl)piperidin-1-yl]ethyl}-2,3-dihydro-1H-benzimidazole-5-carbonitrile], for which the Ki was less than 100 nM.

With `COc1ccc(S(=O)(=O)n2c(=O)n(C(C(=O)N3CCC[C@H](N4CCN(C)CC4)C3)c3ccccc3)c3cc(C#N)ccc32)cc1` (stereo partly drawn) [Example 193, 1-(4-Methoxybenzenesulfonyl)-3-{2-[(S)-3-(4-methylpiperazin-1-yl)piperidin-1-yl]-2-oxo-1-phenylethyl}-2-oxo-2,3-dihydro-1H-benzimidazole-5-carbonitrile], the Ki is less than 100 nM.
